Measurements taken from patent US12459951B2, “Compounds that interact with RAS superfamily proteins for treatment of cancers, inflammatory diseases, rasopathies, and fibrotic disease” (SHY Therapeutics, LLC, priority 2022, dated 2025).

Columns and labels:
IL6 = assay: IL-6 Quantification Assay (ELISA), LPS-stimulated RAW 264.7; type: cell-based; set-up: inhibition: dose or concentration left out as unconfirmed; settings: Mus musculus, RAW264.7; read-out: IL-6: % inh.
Erk1/2 phosphorylation = assay: Erk1/2 Phosphorylation Assay (western blot), Panc-1; type: cell-based, human; settings: at 10 μM, * = activation
Procedure, shortened: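 Phospho-Erk1/2 (Thr202/Tyr204) was detected by western blot in lysates of Panc-1 cells (KRas G12D). These had 6 h, 37° C exposure to 10 μM compound or a dilution series for IC50, in 0.3% DMSO. Cells were either starved overnight in 0.5% FBS with a 15-min 1.5 ng/ml EGF pulse, or kept unstimulated in 10% FBS.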

Akt phosphorylation = assay: Akt Phosphorylation Assay (western blot), Panc-1; type: cell-based, human; settings: at 10 μM, * = activation
Procedure, shortened: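 Phospho-Akt (Ser473) was measured by western blot in lysates of KRas G12D Panc-1 cells exposed to test compound for 6 h at 37 °C, either at 10 μM final with 0.3% DMSO or as serial dilutions for IC50. One format used overnight 0.5% FBS starvation followed by a 15 min pulse of 1.5 ng/ml EGF. The other used cells in 10% FBS with no stimulation.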

| Compound | inhibition (IL6) [%] | % inh of Erk1/2 phosphorylation in Panc-1 (Erk1/2 phosphorylation) | % inh of Akt phosphorylation in Panc-1 (Akt phosphorylation) |
| --- | --- | --- | --- |
| COCCNC(=O)c1c(-c2ccn(C)n2)cn2nc(-c3nccn3C)nc(N[C@H]3CC[C@H](OC)C3)c12 (racemic) [Compound 183, rac 4-(((1S,3S)-3-Methoxycyclo-pentyl)amino)-N-(2-methoxyethyl)-2-(1-methyl-1H-imidazol-2-yl)-6-(1-methyl-1H-pyrazol-3-yl)pyrrolo[2,1-f][1,2,4]triazine-5-carboxamide] | 25 to 49 | D* (85-100% activation) | A (1-25% inhibition) |
| COc1cc(Nc2nc(-c3nccn3C)nn3cc(-c4cccnc4)c(-c4cccnc4)c23)ncn1 [Compound 170, N-(6-Methoxypyrimidin-4-yl)-2-(1-methyl-1H-imidazol-2-yl)-5,6-di(pyridin-3-yl)pyrrolo[2,1-f][1,2,4]triazin-4-amine] | 50 to 74 | A* (1-25% activation) | C* (46-84% activation) |
| Cc1c(-c2ccn(C)n2)cn2nc(-c3nccn3C)nc(O)c12 [Compound 172, 5-Methyl-2-(1-methyl-1H-imidazol-2-yl)-6-(1-methyl-1H-pyrazol-3-yl)pyrrolo[2,1-f][1,2,4]triazin-4-ol] | 1 to 24 | 0 (0% inhibition) | B* (26-49% activation) |
| Cc1c(-c2ccn(C)n2)cn2nc(-c3nccn3C)nc(Nc3cc(N4CCOCC4)ccn3)c12 [Compound 222, 5-Methyl-2-(1-methyl-1H-imidazol-2-yl)-6-(1-methyl-1H-pyrazol-3-yl)-N-(4-morpholinopyridin-2-yl)pyrrolo[2,1-f][1,2,4]triazin-4-amine] | 50 to 74 | A* (1-25% activation) | D* (85-100% activation) |
| COc1ccnc(Nc2nc(-c3nccn3C)nn3cc(-c4ccn(CCN)n4)c(C)c23)c1 [Compound 187, 6-(1-(2-Aminoethyl)-1H-pyrazol-3-yl)-N-(4-methoxypyridin-2-yl)-5-methyl-2-(1-methyl-1H-imidazol-2-yl)pyrrolo[2,1-f][1,2,4]triazin-4-amine] | 50 to 74 | A (1-25% inhibition) | C* (46-84% activation) |
| COc1cnc(Nc2nc(-c3nccn3C)nn3cc(-c4ccn(C)n4)c(C)c23)cc1C [Compound 236, N-(5-Methoxy-4-methylpyridin-2-yl)-5-methyl-2-(1-methyl-1H-imidazol-2-yl)-6-(1-methyl-1H-pyrazol-3-yl)pyrrolo[2,1-f][1,2,4]triazin-4-amine] | 0 | D* (85-100% activation) | B* (26-49% activation) |
| COCCNc1nc(-c2nccn2C)nn2cc(-c3cccnc3)c(-c3ccccc3)c12 [Compound 195, N-(2-Methoxyethyl)-2-(1-methyl-1H-imidazol-2-yl)-5-phenyl-6-(pyridin-3-yl)pyrrolo[2,1-f][1,2,4]triazin-4-amine] | 50 to 74 | B* (26-49% activation) | D* (85-100% activation) |
| COc1ccnc(Nc2nc(-c3nccn3CCN)nn3cc(-c4ccn(C)n4)c(C)c23)c1 [Compound 188, 2-(1-(2-Aminoethyl)-1H-imidazol-2-yl)-N-(4-methoxypyridin-2-yl)-5-methyl-6-(1-methyl-1H-pyrazol-3-yl)pyrrolo[2,1-f][1,2,4]triazin-4-amine] | 50 to 74 | A (1-25% inhibition) | A* (1-25% activation) |
| COCCNc1nc(-c2nccn2C)nn2cc(-c3ccncc3)c(-c3ccccc3)c12 [Compound 202, N-(2-Methoxyethyl)-2-(1-methyl-1H-imidazol-2-yl)-5-phenyl-6-(pyridin-4-yl)pyrrolo[2,1-f][1,2,4]triazin-4-amine] | 50 to 74 | D* (85-100% activation) | B (26-49% inhibition) |
